Measured values published in patent US20260355165A1, “2,3,4,9-TETRAHYDRO-1H-PYRIDO[3,4-B]INDOLE DERIVATIVES AS ESTROGEN RECEPTOR MODULATORS FOR THE TREATMENT OF CANCER” (Olema Pharmaceuticals, Inc., priority 2022, published 2026).

The compounds below were run against T1, estrogen receptor (Homo sapiens, UniProt P03372) (assay: AP assay (alkaline phosphatase activity in ECC-1 cells), agonist mode (absence of E2) and antagonist mode (presence of 500 pM E2)). Details: 3 days, AP activity normalized to 500 pM E2 alone, agonist and antagonist mode combined.
T1 construct: endogenous in cells; host or cells: ECC-1 cells
T1 sequence (P03372 1-595): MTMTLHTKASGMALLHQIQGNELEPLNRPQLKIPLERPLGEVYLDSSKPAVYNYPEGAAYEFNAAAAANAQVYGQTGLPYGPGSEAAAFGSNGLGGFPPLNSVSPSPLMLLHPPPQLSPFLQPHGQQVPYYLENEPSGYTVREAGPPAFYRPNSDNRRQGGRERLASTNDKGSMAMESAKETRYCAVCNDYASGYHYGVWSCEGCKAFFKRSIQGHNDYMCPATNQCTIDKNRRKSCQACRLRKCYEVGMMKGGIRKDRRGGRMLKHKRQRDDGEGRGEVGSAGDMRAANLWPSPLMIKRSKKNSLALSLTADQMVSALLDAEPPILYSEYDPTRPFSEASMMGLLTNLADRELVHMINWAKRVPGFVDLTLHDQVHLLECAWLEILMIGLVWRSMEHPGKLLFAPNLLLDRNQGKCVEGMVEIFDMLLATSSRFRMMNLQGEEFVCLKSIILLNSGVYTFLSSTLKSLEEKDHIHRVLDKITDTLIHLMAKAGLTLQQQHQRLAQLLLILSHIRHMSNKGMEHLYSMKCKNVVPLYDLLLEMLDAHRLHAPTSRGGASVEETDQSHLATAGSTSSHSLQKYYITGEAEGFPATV
Format: cell-based
Method: ECC-1 cells were trypsinized and resuspended in hormone-depleted media and plated at a density of 15 k cells per well into a 96-well plate for at least 4 hours. Cells were treated with test compounds in the absence of E2 (for agonist mode) or in the presence of 500 pM E2 (for antagonist mode) for 3 days and plates were subsequently frozen at −80 °C. Thawed plates were incubated with a chromogenic substrate of AP, p-nitrophenyl phosphate (Thermo Fisher Scientific), for 40 minutes at 42 °C, and absorbances were read at 405 nm. AP activity was normalized to the activity of 500 pM E2 alone.
The compound numbers correspond to the compound numbers of Table 1 and 2. Compounds having an activity designated as “+” provided estrogen receptor agonism having (i) at least 80% increase in the E2-normalized signal in the AP assay (agonist mode) and (ii) no more than 80% reduction in the E2-normalized signal in the AP assay (antagonist mode). Compounds having an activity designated as “++” provided estrogen receptor antagonism having (i) between 10% and 80% increase in the E2-normalized signal in the AP assay (agonist mode) and (ii) between 10% and 80% reduction in the E2-normalized signal in the AP assay (antagonist mode).
For `C[C@@H]1Cc2c([nH]c3ccccc23)[C@@H](c2n[nH]c3cc(CN4CC(CF)C4)ccc23)N1CC(C)(C)F` [Compound I-10, (1S,3R)-1-[6-[[3-(fluoromethyl)azetidin-1-yl]methyl]-1H-indazol-3-yl]-2-(2-fluoro-2-methyl-propyl)-3-methyl-1,3,4,9-tetrahydropyrido[3,4-b]indole], the “Activity (estrogen receptor modulation, e.g., agonism and antagonism)” value (“Activity” below) was “+++ (estrogen receptor antagonism (i) with pIC50 greater than 7.5 and at least a 10% reduction in the E2-normalized signal in the AP assay (antagonist mode); and (ii) no more than 10% increase in E2-normalized signal in the AP assay (agonist mode))”.
With `CC1CN(Cc2ccc3c([C@@H]4c5[nH]c6ccccc6c5C[C@@H](C)N4CC(C)(C)F)n[nH]c3c2)C1` [Compound I-11, (1S,3R)-2-(2-fluoro-2-methyl-propyl)-3-methyl-1-[6-[(3-methylazetidin-1-yl)methyl]-1H-indazol-3-yl]-1,3,4,9-tetrahydropyrido[3,4-b]indole] the “Activity” value was “++ (estrogen receptor antagonism having (i) between 10% and 80% increase in the E2-normalized signal in the AP assay (agonist mode) and (ii) between 10% and 80% reduction in the E2-normalized signal in the AP assay (antagonist mode))”.
With `C[C@@H]1Cc2c([nH]c3ccccc23)[C@@H](c2n[nH]c3cc(CN(C)CCCF)ccc23)N1CC(C)(C)F` [Compound I-12, 3-fluoro-N-[[3-[(1S,3R)-2-(2-fluoro-2-methyl-propyl)-3-methyl-1,3,4,9-tetrahydropyrido[3,4-b]indol-1-yl]-1H-indazol-6-yl]methyl]-N-methyl-propan-1-amine] the “Activity” value was “+ (estrogen receptor agonism having (i) at least 80% increase in the E2-normalized signal in the AP assay (agonist mode) and (ii) no more than 80% reduction in the E2-normalized signal in the AP assay (antagonist mode))”.
`CCCN(C)Cc1ccc2c([C@@H]3c4[nH]c5ccccc5c4C[C@@H](C)N3CC(C)(C)F)n[nH]c2c1` [Compound I-13, N-[[3-[(1S,3R)-2-(2-fluoro-2-methyl-propyl)-3-methyl-1,3,4,9-tetrahydropyrido[3,4-b]indol-1-yl]-1H-indazol-6-yl]methyl]-N-methyl-propan-1-amine] was tested, and the “Activity” value was “+ (estrogen receptor agonism having (i) at least 80% increase in the E2-normalized signal in the AP assay (agonist mode) and (ii) no more than 80% reduction in the E2-normalized signal in the AP assay (antagonist mode))”.
For `C[C@@H]1Cc2c([nH]c3ccccc23)[C@@H](c2n[nH]c3cc(CNCCCF)ccc23)N1CC(C)(C)F` [Compound I-14, 3-fluoro-N-[[3-[(1S,3R)-2-(2-fluoro-2-methyl-propyl)-3-methyl-1,3,4,9-tetrahydropyrido[3,4-b]indol-1-yl]-1H-indazol-6-yl]methyl]propan-1-amine], the “Activity” value was “+ (estrogen receptor agonism having (i) at least 80% increase in the E2-normalized signal in the AP assay (agonist mode) and (ii) no more than 80% reduction in the E2-normalized signal in the AP assay (antagonist mode))”.
In the case of `C[C@@H]1Cc2c([nH]c3ccccc23)[C@@H](c2c[nH]c3cc(CN4CC(CF)C4)ccc23)N1CC(F)(F)CO` [Compound I-15, 2,2-difluoro-3-[(1R,3R)-1-[6-[[3-(fluoromethyl)azetidin-1-yl]methyl]-1H-indol-3-yl]-3-methyl-1,3,4,9-tetrahydropyrido[3,4-b]indol-2-yl]propan-1-ol], the “Activity” value is reported as “++ (estrogen receptor antagonism having (i) between 10% and 80% increase in the E2-normalized signal in the AP assay (agonist mode) and (ii) between 10% and 80% reduction in the E2-normalized signal in the AP assay (antagonist mode))”.
For `C[C@@H]1Cc2c([nH]c3ccccc23)[C@@H](c2n[nH]c3cc(CN4CC(CF)C4)ccc23)N1CC(F)(F)CO` [Compound I-16, 2,2-difluoro-3-[(1S,3R)-1-[6-[[3-(fluoromethyl)azetidin-1-yl]methyl]-1H-indazol-3-yl]-3-methyl-1,3,4,9-tetrahydropyrido[3,4-b]indol-2-yl]propan-1-ol], the “Activity” value was “++ (estrogen receptor antagonism having (i) between 10% and 80% increase in the E2-normalized signal in the AP assay (agonist mode) and (ii) between 10% and 80% reduction in the E2-normalized signal in the AP assay (antagonist mode))”.
In the case of `CC1CN(Cc2ccc3c([C@@H]4c5[nH]c6ccccc6c5C[C@@H](C)N4CC(F)(F)CO)n[nH]c3c2)C1` [Compound I-17, 2,2-difluoro-3-((1S,3R)-3-methyl-1-(6-((3-methylazetidin-1-yl)methyl)-1H-indazol-3-yl)-1,3,4,9-tetrahydro-2H-pyrido[3,4-b]indol-2-yl)propan-1-ol], the “Activity” value is reported as “+++ (estrogen receptor antagonism (i) with pIC50 greater than 7.5 and at least a 10% reduction in the E2-normalized signal in the AP assay (antagonist mode); and (ii) no more than 10% increase in E2-normalized signal in the AP assay (agonist mode))”.
For `C[C@@H]1Cc2c([nH]c3ccccc23)[C@@H](c2n[nH]c3cc(CN4CC[C@@H](CF)C4)ccc23)N1CC(C)(C)F` [Compound I-24, (1S,3R)-2-(2-fluoro-2-methyl-propyl)-1-[6-[[(3R)-3-(fluoromethyl)pyrrolidin-1-yl]methyl]-1H-indazol-3-yl]-3-methyl-1,3,4,9-tetrahydropyrido[3,4-b]indole], the “Activity” value was “+ (estrogen receptor agonism having (i) at least 80% increase in the E2-normalized signal in the AP assay (agonist mode) and (ii) no more than 80% reduction in the E2-normalized signal in the AP assay (antagonist mode))”.
With `C[C@@H]1Cc2c([nH]c3ccccc23)[C@@H](c2c[nH]c3c(F)c(CN4CC(CF)C4)ccc23)N1CC(C)(C)F` [Compound I-29, (1R,3R)-1-[7-fluoro-6-[[3-(fluoromethyl)azetidin-1-yl]methyl]-1H-indol-3-yl]-2-(2-fluoro-2-methyl-propyl)-3-methyl-1,3,4,9-tetrahydropyrido[3,4-b]indole] the “Activity” value was “++ (estrogen receptor antagonism having (i) between 10% and 80% increase in the E2-normalized signal in the AP assay (agonist mode) and (ii) between 10% and 80% reduction in the E2-normalized signal in the AP assay (antagonist mode))”.
In the case of `C[C@@H]1Cc2c([nH]c3ccccc23)[C@@H](c2c[nH]c3cc(CC4CN(C)C4)ccc23)N1CC(C)(C)F` [Compound I-30, (1R,3R)-2-(2-fluoro-2-methyl-propyl)-3-methyl-1-[6-[(1-methylazetidin-3-yl)methyl]-1H-indol-3-yl]-1,3,4,9-tetrahydropyrido[3,4-b]indole], the “Activity” value is reported as “+ (estrogen receptor agonism having (i) at least 80% increase in the E2-normalized signal in the AP assay (agonist mode) and (ii) no more than 80% reduction in the E2-normalized signal in the AP assay (antagonist mode))”.
`C[C@@H]1Cc2c([nH]c3ccccc23)[C@@H](c2n[nH]c3cc(CN4CC5(CC(O)C5)C4)ccc23)N1CC(C)(C)F` [Compound I-31, 2-[[3-[(1S,3R)-2-(2-fluoro-2-methyl-propyl)-3-methyl-1,3,4,9-tetrahydropyrido[3,4-b]indol-1-yl]-1H-indazol-6-yl]methyl]-2-azaspiro[3.3]heptan-6-ol] was tested, and the “Activity” value was “+ (estrogen receptor agonism having (i) at least 80% increase in the E2-normalized signal in the AP assay (agonist mode) and (ii) no more than 80% reduction in the E2-normalized signal in the AP assay (antagonist mode))”.
With `C[C@@H]1Cc2c([nH]c3ccccc23)[C@@H](c2n[nH]c3cc(CN4CC(C#N)C4)ccc23)N1CC(C)(C)F` [Compound I-32, 1-[[3-[(1S,3R)-2-(2-fluoro-2-methyl-propyl)-3-methyl-1,3,4,9-tetrahydropyrido[3,4-b]indol-1-yl]-1H-indazol-6-yl]methyl]azetidine-3-carbonitrile] the “Activity” value was “+ (estrogen receptor agonism having (i) at least 80% increase in the E2-normalized signal in the AP assay (agonist mode) and (ii) no more than 80% reduction in the E2-normalized signal in the AP assay (antagonist mode))”.
With `C[C@@H]1Cc2c([nH]c3ccccc23)[C@@H](c2n[nH]c3cc(CN4CC5(CC(F)C5)C4)ccc23)N1CC(C)(C)F` [Compound I-33, (1S,3R)-1-[6-[(6-fluoro-2-azaspiro[3.3]heptan-2-yl)methyl]-1H-indazol-3-yl]-2-(2-fluoro-2-methyl-propyl)-3-methyl-1,3,4,9-tetrahydropyrido[3,4-b]indole] the “Activity” value was “+++ (estrogen receptor antagonism (i) with pIC50 greater than 7.5 and at least a 10% reduction in the E2-normalized signal in the AP assay (antagonist mode); and (ii) no more than 10% increase in E2-normalized signal in the AP assay (agonist mode))”.
